Source: patent US20170327797A1, “R[…] CCCDNA, THE METHOD TO GENERATE THEREOF AND THE USE THEREOF” (priority 2015, published 2017)

Key:
[1] = system: HBV (HBVcircle transfected HepG2 cells); test: In vitro anti-HBV drug evaluation in HBVcircle transfected HepG2 cells; type: cell-based; conditions: treated 6 days
Experimental: X-[…] HP DNA transfection reagent (from Roche) was used for transfection. One day before transfection, cells were trypsinized and seeded onto plates, Cells were seeded at 0.8×10^5/well in 24 well plates for HepG2 and proliferation HepaRG cell line, and 3×10^5/well in 24 well plates for differentiated HepaRG cell line.
(§1) HBeAg or HBsAg were measured by using the HBeAg or HBsAg ELISA kit (from Autobio) according to the manufacturer's direction.
The transfected HepG2 cells were lysed using lysis buffer (50 mM Tris-HCl, pH8.0, 100 mM NaCl, 1% CA-630, 1×EDTA free proteinase inhibitor). After incubation at 4° C. for 1 h with agitation, cytoplasmic lysate was cleared by centrifugation. The lysate was separated by electrophoresis in 1.5% agarose gel and then transferred onto PVDF membrane (for Western blotting) or a positively charged nylon membrane (for southern blotting), for detecting the capsid protein and encapsidated DNA respectively.
After SDS-PAGE, gels were transferred to PVDF membrane by using iblot system (from Invitrogen). […]
The sample was loaded to an electrophoresis of 1.5% agarose gel in 1×TAE buffer for 2-3 hours. […] After incubating blots with an alkaline-phosphatase-conjugated anti-DIG antibody, hybridization signals were detected in a standard chemiluminescence reaction.
Next, the feasibility of evaluating anti-HBV drugs using HBVcircle system in cell culture models was assessed. […]

[2] = system: HBV (HBVcircle injected C3H/HeN mice); test: In vivo anti-HBV drug evaluation in HBVcircle HDI mice; conditions: 10 μg HBVcircle, 0.03mg/kg QD orally for 29 days from day 23
Experimental: The animals were grouped based on Day-1 body weights. On Day 0, all animals were subjected to hydrodynamic injection through tail vein within 5 seconds with 2.5-20 μg DNA in a volume (mL) of saline equivalent to 8% of body weight (g) (Liu, et al., 1999, Gene Ther, 6: 1258-66, Zhang, et al., 1999, Hum Gene Ther, 10: 1735-7). After animal exclusion due to technical failure of hydrodynamic injection or low HBV marker expression on Day 1 or Day 3, the remaining mice were maintained for long term evaluation. Blood samples were collected for serum preparation on indicated time post HDI injection.
For compound treatment, on Day 20 post HDI (DAY-3 of compound treatment), C3H/HeN mice were divided into 4 groups based on serum HBsAg levels and body weights on DAY 20. ETV and R848 were diluted in saline from stock solutions on treatment days. Vehicle was RC591. All test compounds were given orally with indicated dose and frequency.
as §1
HBV DNA in cell culture supernatant or mouse serum was extracted using MagNA Pure 96 System MagNA Pure 96 System (from Roche). HBV DNA levels were determined via RT-PCR. The primer and probe sequences are shown below. […]

C=C1[C@H](CO)[C@@H](O)C[C@@H]1n1cnc2c(=O)[nH]c(N)nc21 [ETV, Entecavir]
HBV DNA replication (encapsidated HBV DNA, southern blot) [1]: efficiently blocked HBV DNA replication in a dose dependent manner
other viral proteins expression [1]: did not affect other viral proteins expression
HBV DNA in serum [2]: efficiently reduced HBV DNA in serum to undetectable level
